Results from US5856535A, “Aminosterol ester compounds” (priority 1996, dated 1999).
≈ marks a conversion by molar mass, not a printed value. Like-named read-outs stand apart in the source and are kept apart here.

How the values were obtained:
[1] = test system: chick embryo vitelline capillaries; assay: chick embryo vitelline capillary regression assay; assay type: in vivo; design: key to Chick embryo vitelline capillary regression: +: Vascular reactivity; 0: No vascular reactivity; +/-: Equivocal reactivity; conditions: for Chick embryo vitelline capillary regression: 60 minutes; for effect on vitelline capillaries (in words): 3- to 5-day chick embryo
Method: Using the chick embryo vitelline capillaries assay, various aminosterol compounds were tested for their ability to induce capillary regression. Each compound was applied in 0.1 ml of 15% Ficol 400 and PBS onto the embryo, and vascular regression was assessed after 60 minutes. These tests were conducted by the chorioallantoic membrane anti-angiogenesis assay by applying the material to be assayed to 3 day old fertilized chick embryos in the manner described by Wilks et al., "Inhibition of Angiogenesis With Combination Angiostatic Steroids and Suramin," Radiation Biology, Vol. 60, Nos. 1/2, 1991, pp. 73-77, which article is entirely incorporated herein by reference.
The 3-day chick embryo consists of an embryonic disc from which numerous vessels emerge and return, forming a "figure 8"-shaped structure--the embryo in the center with vascular loops extending outward over both poles. […] Following a lag period of around 15 minutes, the constriction of continuity between capillary and secondary vessels, generally on the "venous" side, was observed. Continued pulsatile blood flow progressed, resulting in a "swelling" of the blind tube, followed by a pinching off of the remaining connection and formation of an enclosed vascular sac resembling a "blood island." This process progressed until only the largest vessels remained intact.

[2] = test system: Xenopus laevis Stages 59-60 tadpoles; assay: tadpole assay; assay type: in vivo; conditions: 10 μg/ml where stated
[3] = test system: splenocytes; assay: mitogen proliferation assay (splenocytes of treated mice, Con A); assay type: in vivo; conditions: for Rel. potency to MSI-1436, Mitogen Proliferation Assay: 10 mg/kg iv
Method: For the attached Tables, the mitogen proliferation assay was performed by treating mice (male or female) with various amounts of the aminosterol test compounds. Some time later (typically between 2 hours and 14 days), the mice are sacrificed and their spleens removed. Splenocytes are harvested and cultured in the presence of between 1-10 μg/ml of Con A (Sigma) for 48 hours. See James Morgan, "Monoclonal Antibody Production," Modern Methods in Pharmacology, pp. 29-67, eds., Spector and Back, 1988. This excerpt is entirely incorporated herein by reference. Cell proliferation is monitored either by direct cell counting or by measurement of the incorporation of radioactive thymidine.

[4] = test system: melanoma cells; assay: MTT assay for cell number; assay type: cell-based; conditions: for IC50: read-out: MTT assay IC50; for minimal effective concentration: 48 h, Table II, read-out: Minimum Effective Concentration, MTT assay
Method: In Table V, several aminosterol esters show efficacy in killing melanoma cells in the MTT assay.
The MTT assay for cell number is performed as follows. Cells are counted on a hemocytometer and diluted to a concentration of approx. 10,000 cells/well (55,000 cells/ml×0.18 ml). Cells are then plated in a 96 well microtiter plate and allowed to attach overnight. The next day, compounds are serially diluted from 1000 to 15.6 μg/ml and run in duplicate. 20 μl of each dilution are transferred to the pre-seeded microtiter plates. The final concentrations are 100 to 1.56 μg/ml. The plates are then incubated for 48 hours at 37° C. in 5% CO2. After 48 hours, MTT solution is added. The plate is re-incubated for 4 hours. Readings are done by removing all but 30 μl of media and MTT solution and dissolving the formazan crystals with DMSO. The formazan is dissolved by mixing on a rotating plate at low speed for about 30 minutes. Absorbance of converted dye is measured at a wavelength of 560 nm with background subtraction at 630 nm. The percent survival is determined by a comparison between the mean absorbance of the duplicate test lanes and the growth control.

[5] = inhibition of MSI-1436 binding; conditions: 3H-MSI-1436 at 20 μg/mL
[6] = test system: S. aureus; assay: antibiotic activity, S. aureus; assay type: cell-based; conditions: Staphylococcus aureus

## COC(=O)CC[C@@H](C)[C@H]1CC[C@H]2[C@@H]3[C@H](O)C[C@H]4C[C@@H](NCCCNCCCCNCCCN)CC[C@]4(C)[C@H]3CC[C@]12C [Compound 396]
[1]; 0.001 μg applied
  Chick embryo vitelline capillary regression: 0
[1]; 0.01 μg applied
  Chick embryo vitelline capillary regression: 0
[1]; 0.1 μg applied
  Chick embryo vitelline capillary regression: 0

## C[C@H](CCC(=O)O)[C@H]1CC[C@H]2[C@@H]3CC[C@H]4C[C@H](NCCCNCCCCN)CC[C@]4(C)[C@H]3CC[C@]12C [Compound 318]
[1]; 1 μg applied
  Chick embryo vitelline capillary regression: 0

## COC(=O)CC[C@@H](C)[C@H]1CC[C@H]2[C@@H]3C[C@@H](O)[C@H]4C[C@H](NCCN)CC[C@]4(C)[C@H]3CC[C@]12C [Compound 431]
[2]
  effect on embryonic epithelium / epithelial shedding (in words): functionally similar to compound 1437

## COC(=O)CC[C@@H](C)[C@H]1CC[C@H]2[C@@H]3C[C@@H](O)[C@H]4C[C@@H](NCCN)CC[C@]4(C)[C@H]3CC[C@]12C [Compound 432]
[2]
  effect on embryonic epithelium / epithelial shedding (in words): functionally similar to compound 1437

## COC(=O)CC[C@@H](C)[C@H]1CC[C@H]2[C@@H]3[C@H](O)C[C@@H]4C[C@@H](NCCN)CC[C@]4(C)[C@H]3CC[C@]12C [Compound 409]
[2]
  effect on embryonic epithelium / epithelial shedding (in words): functionally similar to compound 1437

## C[C@H](CCC(=O)O)[C@H]1CC[C@H]2[C@@H]3[C@H](O)C[C@@H]4C[C@@H](NCCN)CC[C@]4(C)[C@H]3CC[C@]12C [Compound 415]
[1]
  effect on vitelline capillaries (in words): especially active

## COC(=O)CCC(C)[C@H]1CCC2C3C[C@@H](O)[C@H]4C[C@@H](NCCCNCCCCNCCCN)CC[C@]4(C)C3CC[C@@]21C (some centres unmarked)
[3]
  Rel. potency to MSI-1436, Mitogen Proliferation Assay: 0.43
[4]; Tables III-V
  MTT assay IC50: 14 µg/mL
  IC50: 10 µg/mL (≈ 16.9 µM)
[5]
  % Inhib. of MSI-1436 Binding @ 100 μg/mL: 51%

## COC(=O)CCC(C)[C@H]1CCC2C3CC[C@@H]4C[C@H](NCCN)CC[C@]4(C)C3C[C@H](O)[C@@]21C (some centres unmarked) [drawing 109]
[4]; Tables III-V
  IC50: 2.4 µg/mL (≈ 5.35 µM)

## COC(=O)CCC(C)[C@H]1CCC2C3CC[C@@H]4C[C@H](NCCN)CC[C@]4(C)C3C[C@H](O)[C@@]21C (some centres unmarked) [drawing 90]
[4]
  minimal effective concentration: 2.4 µg/mL

## COC(=O)CC[C@@H](C)[C@H]1CC[C@H]2[C@@H]3CC[C@@H]4C[C@H](NCCN)CC[C@]4(C)[C@H]3C[C@H](O)[C@]12C [Compound 416]
[2]
  effect on embryonic epithelium / epithelial shedding (in words): functionally similar to compound 1437

## COC(=O)CCC(C)[C@H]1CCC2C3C[C@@H](O)[C@H]4C[C@H](NCCN)CC[C@]4(C)C3CC[C@@]21C (some centres unmarked)
[4]; Tables III-V
  IC50: 2.9 µg/mL (≈ 6.46 µM)

## COC(=O)CCC(C)[C@H]1CCC2C3CC[C@H]4C[C@@H](NCCCNCCCCNCCCN)CC[C@]4(C)C3CC[C@@]21C (some centres unmarked) [drawing 103]
[3]
  Rel. potency to MSI-1436, Mitogen Proliferation Assay: 0.73
[4]; Tables III-V
  MTT assay IC50: 4 µg/mL
  IC50: 5 µg/mL (≈ 8.7 µM)
[5]
  % Inhib. of MSI-1436 Binding @ 100 μg/mL: -24%

## COC(=O)CC[C@@H](C)[C@H]1CC[C@H]2[C@@H]3C[C@@H](O)[C@H]4C[C@@H](NCCCN5CCN(CCCN)CC5)CC[C@]4(C)[C@H]3CC[C@]12C [Compound 469]
[3]
  Rel. potency to MSI-1436, Mitogen Proliferation Assay: 1.6
[3]; mouse, in vivo
  potency in the mitogen proliferation assay (in words): higher potency in the mitogen proliferation assay than compound 1436
[4]
  IC50: 2 µg/mL (≈ 3.4 µM)
[5]
  % Inhib. of MSI-1436 Binding @ 100 μg/mL: 110%

## COC(=O)CCC(C)[C@H]1CCC2C3CC[C@H]4C[C@H](NCCCNCCCCNCCCN)CC[C@]4(C)C3CC[C@@]21C (some centres unmarked) [drawing 55]
[6]
  MIC: 4 µg/mL (≈ 6.96 µM)

## CC(CCC(=O)O)[C@H]1CCC2C3CC[C@H]4C[C@@H](NCCCNCCCCN)CC[C@]4(C)C3CC[C@@]21C (some centres unmarked)
[4]
  minimal effective concentration: 13.8 µg/mL

## CC(C)CCC[C@@H](C)[C@H]1CC[C@H]2[C@@H]3CC[C@H]4C[C@@H](NCCCNCCCCN)CC[C@]4(C)[C@H]3CC[C@]12C [Compound 303]
[1]; 1 μg applied
  Chick embryo vitelline capillary regression: 0

## COC(=O)CCC(C)[C@H]1CCC2C3CC[C@H]4C[C@@H](NCCCNCCCCNCCCN)CC[C@]4(C)C3CC[C@@]21C (some centres unmarked) [drawing 75]
[4]
  minimal effective concentration: 5 µg/mL

## COC(=O)CCC(C)[C@H]1CCC2C3CC[C@H]4C[C@H](NCCCNCCCCNCCCN)CC[C@]4(C)C3CC[C@@]21C (some centres unmarked) [drawing 118]
[4]; Tables III-V
  IC50: 13 µg/mL (≈ 22.6 µM)
[5]
  % Inhib. of MSI-1436 Binding @ 100 μg/mL: 49%

## COC(=O)CCC(C)[C@H]1CCC2C3C(CC[C@@]21C)[C@@]1(C)CC[C@@H](NCCN)C[C@H]1C[C@H]3O (some centres unmarked) [drawing 70]
[4]
  minimal effective concentration: 2.6 µg/mL

## CC(CCC(=O)O)[C@H]1CCC2C3C(CC[C@@]21C)[C@@]1(C)CC[C@@H](NCCCNCCCCN)C[C@@H]1C[C@H]3O (some centres unmarked)
[4]
  minimal effective concentration: 58.6 µg/mL

## COC(=O)CCC(C)[C@H]1CCC2C3C(CC[C@@]21C)[C@@]1(C)CC[C@@H](NCCCNCCCCNCCCN)C[C@@H]1C[C@H]3O (some centres unmarked)
[4]; Tables III-V
  IC50: 7.8 µg/mL (≈ 13.2 µM)
[5]
  % Inhib. of MSI-1436 Binding @ 100 μg/mL: 15%

## COC(=O)CCC(C)[C@H]1CCC2C3C[C@@H](O)[C@H]4C[C@@H](NCCN)CC[C@]4(C)C3CC[C@@]21C (some centres unmarked)
[4]; Tables III-V
  IC50: 0.8 µg/mL (≈ 1.78 µM)

## COC(=O)CCC(C)[C@H]1CCC2C3C(CC[C@@]21C)[C@@]1(C)CC[C@@H](NCCCNCCCCN)C[C@H]1C[C@H]3O (some centres unmarked) [drawing 116]
[4]; Tables III-V
  IC50: 12 µg/mL (≈ 22.5 µM)
[5]
  % Inhib. of MSI-1436 Binding @ 100 μg/mL: 18%

## COC(=O)CCC(C)[C@H]1CCC2C3CC[C@H]4C[C@H](NCCCNCCCCNCCCN)CC[C@]4(C)C3CC[C@@]21C (some centres unmarked) [drawing 84]
[4]
  minimal effective concentration: 6.8 µg/mL

## COC(=O)CCC(C)[C@H]1CCC2C3C[C@@H](O)[C@H]4C[C@@H](NCCCNCCCCN)CC[C@]4(C)C3CC[C@@]21C (some centres unmarked)
[4]; Tables III-V
  IC50: 12 µg/mL (≈ 22.5 µM)
[5]
  % Inhib. of MSI-1436 Binding @ 100 μg/mL: 57%

## CC(CCC(=O)O)[C@H]1CCC2C3C[C@@H](O)[C@H]4C[C@@H](NCCCNCCCCNCCCN)CC[C@]4(C)C3CC[C@@]21C (some centres unmarked)
[3]
  Rel. potency to MSI-1436, Mitogen Proliferation Assay: 0.22
[5]
  % Inhib. of MSI-1436 Binding @ 100 μg/mL: -69%

## CC(CCC(=O)O)[C@H]1CCC2C3C(CC[C@@]21C)[C@@]1(C)CC[C@H](NCCCNCCCCNCCCN)C[C@H]1C[C@H]3O (some centres unmarked) [drawing 86]
[4]
  minimal effective concentration: 18.1 µg/mL

## COC(=O)CCC(C)[C@H]1CCC2C3C(CC[C@@]21C)[C@@]1(C)CC[C@H](NCCCNCCCCNCCCN)C[C@@H]1C[C@H]3O (some centres unmarked) [drawing 35]
[6]
  MIC: 2 to 4 µg/mL (≈ 3.38 to 6.77 µM)

## C[C@H](CCC(=O)O)[C@H]1CC[C@H]2[C@@H]3CC[C@H]4C[C@@H](NCCCNCCCCN)CC[C@]4(C)[C@H]3CC[C@]12C [Compound 319]
[2]; about 60 minutes
  vascular effect in tadpole (in words): common vascular occlusive effect
[1]; 0.001 μg applied
  Chick embryo vitelline capillary regression: +/-
[1]; 0.01 μg applied
  Chick embryo vitelline capillary regression: +
[1]; 0.1 μg applied
  Chick embryo vitelline capillary regression: +
[1]; 1 μg applied
  Chick embryo vitelline capillary regression: +
[1]; 10 μg applied
  Chick embryo vitelline capillary regression: +
[1]
  effect on vitelline capillaries (in words): especially active

## COC(=O)CCC(C)[C@H]1CCC2C3C(CC[C@@]21C)[C@@]1(C)CC[C@H](NCCN)C[C@H]1C[C@H]3O (some centres unmarked)
[4]; Tables III-V
  IC50: 5.3 µg/mL (≈ 11.8 µM)

## COC(=O)CCC(C)[C@H]1CCC2C3C(CC[C@@]21C)[C@@]1(C)CC[C@H](NCCCNCCCCNCCCN)C[C@@H]1C[C@H]3O (some centres unmarked) [drawing 115]
[4]; Tables III-V
  IC50: 8.1 µg/mL (≈ 13.7 µM)
[5]
  % Inhib. of MSI-1436 Binding @ 100 μg/mL: 32%

## COC(=O)CCC(C)[C@H]1CCC2C3C(CC[C@@]21C)[C@@]1(C)CC[C@H](NCCCNCCCCNCCCN)C[C@H]1C[C@H]3O (some centres unmarked)
[4]; Tables III-V
  IC50: 7.9 µg/mL (≈ 13.4 µM)
[5]
  % Inhib. of MSI-1436 Binding @ 100 μg/mL: 19%
